From US12180509B2, “Methods for reprograming non-pluripotent cells into pluripotent stem cells” (Beihao Stem Cell and Regenerative Medicine Research …, priority 2015, dated 2024)

Experiments:
XEN-like cells = assay: Transition of XEN-like colonies to CiPSCs (stages 2 and 3); type: cell-based, mouse; conditions: screen of 88 small molecules in the presence of VC6TFA plus DZNep, stage 2 of 12 days
Method: MEFs, MNFs or MAFs were plated at 300,000 cells per 100 mm dish, or 50,000 cells per well on a 6-well plate. The next day (day 0), the culture was changed into stage 1 medium supplemented with small-molecule cocktail VC6TFAE (0.5 mM VPA, […] CHIR99021, 10 μM 616452, 5 μM Tranylcypromine, 50 µM FSK, 0.05 μM AM580 and 5 μM EPZ004777). […] The cells were harvested and then re-plated at 100,000 cells per well of a 6-well plate (1:15). During days 12-16, the cells were cultured in stage 1 medium supplemented with a modified small-molecule cocktail VC6TFA (0.5 mM VPA, 10 μM CHIR99021, 10 μM 616452, 5 μM Tranylcypromine, 10 μM FSK, 0.05 μM AM580). On day 16, XEN-like epithelial colonies were formed and the culture was changed into stage 2 medium supplemented with small-molecule cocktail VC6TFAZDS (0.5 mM VPA, 10 μM CHIR99021, 10 μM 616452, 5 μM Tranylcypromine, 10 μM FSK, 0.05 μM AM580, 0.05 μM DZNep, 0.5 μM 5-aza-dC and 5 μM SGC0946). On day 28, the culture was transferred into stage 3 medium. […] During CiPSC induction, the medium and small molecules were changed every 4 days.
Studies were next conducted to identify small molecules that facilitate the transition of XEN-like colonies to CiPSCs during stages 2 and 3. Small-molecule screenings were performed in the presence of small molecule cocktail VC6TFA plus DZNep (Z) for 12 days with successful enhanced generation of CiPSC colonies. […]

[1] = system: pluripotency-related genes and XEN marker genes; assay: Real-time PCR of pluripotency, XEN and MET genes during chemical reprogramming; type: cell-based, mouse; conditions: stage 2, XEN-like cells
Method: Total RNA from an entire well of cultured cells was isolated using the RNeasy Plus MiniKit (QIAGEN). For a single colony, RNA was isolated using the RNeasy Micro Kit (QIAGEN). RNA was converted to cDNA using TransScript First-Strand cDNA Synthesis SuperMix (TransGen Biotech). PCR was carried out using Power SYBRR Green PCR Master Mix (Applied Biosystems) and performed on an ABI Prism 7300 Sequence Detection System. The data were analyzed using the delta-delta Ct method.

## Nc1ncn([C@H]2C[C@H](O)[C@@H](CO)O2)c(=O)n1 [5-aza-dC]
XEN-like cells
  CiPSC colony formation in stage 3: CiPSC colonies formed in stage 3 only when the cell culture medium was supplemented with 5-aza-dC
[1]
  expression of pluripotency genes (Oct4, Dppa family genes): promote the expression of pluripotency genes
